In ChEMBL document CHEMBL4219208, “5'-Hydroxy-5'-homoaristeromycin: Synthesis and antiviral properties” (Bioorg Med Chem Lett, 2018) one finds Activity, CC50 and EC50 data, which are given here for two molecules.

Calls of active or inactive are those of the source. No cut-off for these calls is given here. Some results are limits rather than exact numbers.

The nature of data set [1]: Cytotoxicity against human Huh-Luc-Neo cells assessed as reduction in cell viability. Format: cell-based.
The subject of a further data set is MDCK. In words: Cytotoxicity against MDCK cells assessed as reduction in cell viability. The note with it: dog. Format: cell-based, Canis lupus familiaris.
The subject of the next data set is Rift Valley fever virus. Kind of data set: Antiviral activity against Rift Valley fever virus MP-12 infected in African green monkey Vero 76 cells. Format: functional, organism-based.
Another data set concerns SARS-CoV. Kind of data set: Antiviral activity against SARS coronavirus Toronto-2 infected in African green monkey Vero E6 cells. Format: functional, organism-based. The note with it: Severe acute respiratory syndrome-related coronavirus, Vero C1008.
A further data set deals with Vaccinia virus. Kind of data set: Antiviral activity against Vaccinia virus Copenhagen infected in HFF cells. In kind it is functional, organism-based. The note with it: Orthopoxvirus vaccinia.
A further data set relates to Human alphaherpesvirus 2. Kind of data set: Antiviral activity against Herpes simplex virus 2 G infected in HFF. In kind it is functional, organism-based.
In another data set the test system is LLC-MK2. In words: Cytotoxicity against monkey LLC-MK2 clone 7.1 cells assessed as reduction in cell viability. Format: cell-based, Macaca mulatta. The settings on record: rhesus monkey.
In the next data set the test system is Hepatitis C virus. In words: Antiviral activity against Hepatitis C virus Con1 infected in human Huh-Luc-Neo cells. Format: functional, organism-based. The settings on record: Hepacivirus hominis; isolate Con1.
Another data set has as its system Vero 76. Kind of data set: Cytotoxicity against African green monkey Vero 76 cells assessed as reduction in cell viability. Format: cell-based. The settings on record: chlorocebus sabaeus.
The nature of data set [2]: Cytotoxicity against human HepG2.2.15 cells assessed as reduction in cell viability. In kind it is cell-based, HepG2 2.2.15.
For a further data set, the system named is Human alphaherpesvirus 1. In words: Antiviral activity against Herpes simplex virus 1 E-377 infected in HFF. In kind it is functional, organism-based.
The next data set has as its system Hepatitis B virus. In words: Antiviral activity against Hepatitis B virus ayw infected in human HepG2.2.15 cells. Format: functional, organism-based, Hepatitis B virus subtype ayw.
Data set [3] is described as follows: Cytotoxicity against HFF assessed as reduction in cell viability. Format: cell-based. The note with it: human, HFF cells.
A further data set concerns Poliovirus 1. In words: Antiviral activity against Polio virus type 1 infected in monkey LLC-MK2 clone 7.1 cells. In kind it is functional, organism-based.
The test system of another data set is Human betaherpesvirus 5. In words: Antiviral activity against Human cytomegalovirus AD169 infected in HFF. In kind it is functional, organism-based. The settings on record: Human betaherpesvirus 5, AD169, HFF.
The next data set has as its system dengue virus type 2. In words: Antiviral activity against Dengue virus type 2 New guinea infected in African green monkey Vero 76 cells. Format: functional, organism-based.
A further data set has as its system HEp-2. Kind of data set: Cytotoxicity against human Hep2 cells assessed as reduction in cell viability. In kind it is cell-based.
Data set [4] relates to Venezuelan equine encephalitis virus. In words: Antiviral activity against Venezuelan equine encephalitis virus TC-83 infected in African green monkey Vero cells. Format: functional, organism-based.
Another data set deals with Influenza A virus. Kind of data set: Antiviral activity against Influenza A virus (A/California/07/2009(H1N1)) infected in MDCK cells. Format: functional, organism-based.
For the next data set, the system named is Vero C1008. In words: Cytotoxicity against African green monkey Vero E6 cells assessed as reduction in cell viability. Format: cell-based. The settings on record: chlorocebus sabaeus.
The subject of another data set is Vero. In words: Cytotoxicity against African green monkey Vero cells assessed as reduction in cell viability. In kind it is cell-based. The settings on record: chlorocebus sabaeus.
The test system of another data set is West Nile virus. In words: Antiviral activity against West Nile virus KERN 515/WN02 infected in MDCK cells. Format: functional, organism-based.
For the next data set, the system named is Human orthopneumovirus. In words: Antiviral activity against Respiratory syncytial virus A infected in human Hep2 cells. In kind it is functional, organism-based. The note with it: type A.
The test system of the next data set is Yellow fever virus. In words: Antiviral activity against Yellow fever virus 17D infected in African green monkey Vero cells. Format: functional, organism-based.

`Nc1ncnc2c1ncn2[C@@H]1C[C@H]([C@@H](O)CO)[C@@H](O)[C@H]1O`: the Activity result (in data set [1]; in the data set with MDCK; with LLC-MK2; with Vero 76; in the data set on HEp-2; with Vero C1008) was “Non-Toxic” each time. Besides, the Activity result in the data set on Vero is “Non-Toxic”. The result in the data set on Rift Valley fever virus, with SARS-CoV, in the data set on Vaccinia virus, in the data set with Human alphaherpesvirus 2, in the data set with Hepatitis C virus and in the data set on Human alphaherpesvirus 1 was inactive. For the same molecule, the result (in the data set with Poliovirus 1; in the data set with dengue virus type 2; in data set [4]; in the data set on Influenza A virus; with West Nile virus; with Human orthopneumovirus) was inactive. The results for the CC50 in data set [2] and in data set [3] were above 100 µM and above 300 µM, respectively. Further, the 50% effective concentration (EC50) turned out to be 7.4 µM with Hepatitis B virus and 0.72 µM with Human betaherpesvirus 5.

Consider `Nc1ncnc2c1ncn2[C@@H]1C[C@H]([C@H](O)CO)[C@@H](O)[C@H]1O`, for which the Activity result (in data set [1]; with MDCK; in the data set with LLC-MK2; in the data set with Vero 76; with HEp-2; in the data set on Vero C1008) was “Non-Toxic” throughout. Further, in the data set on Vero, the Activity result is reported as “Non-Toxic”. Further, the result with Rift Valley fever virus, in the data set on SARS-CoV, in the data set on Vaccinia virus, with Human alphaherpesvirus 2, in the data set on Hepatitis C virus and in the data set on Human alphaherpesvirus 1 was inactive. The outcome (with Yellow fever virus; with Poliovirus 1; with dengue virus type 2; in data set [4]; in the data set on Influenza A virus; in the data set on West Nile virus) was inactive. Further, in the data set with Human orthopneumovirus, the outcome was inactive. In data set [2], the CC50 is above 100 µM. The molecule also displayed an EC50 in the data set on Hepatitis B virus of 7.1 µM.

One may read the CC50 as the concentration giving 50% cytotoxicity. As usually defined, the EC50 is the concentration needed to bring the measured effect to its halfway point.
